Measured values taken from patent publication US11491161B2, “Methods and compositions for treatment of pulmonary hypertension and other lung disorders” (Respira Therapeutics, Inc., priority 2016, dated 2022).
Structures can show the parent of a compound that is named as a salt.

Experiments:
[1] = particle size distribution of micronized drug substance by laser diffraction; assay type: physicochemical; conditions: hydrochloride trihydrate
Text: The coarse drug substance as received was forced into the milling chamber by a compressed air stream, through a Venturi tube with a higher pressure (P_vent) and metered into the mill at the desired rate (F-feed). Nitrogen was used as grinding gas and adjusted to the desired pressure (P_grind) to mill the drug particles. The micronized material was characterized for process yield gravimetrically, particle size distribution (PSD) by laser diffraction (Malvern Masersizer) and moisture content by Karl Fischer (KF) analysis. A finer micronized drug substance PSD as evidenced with smaller volume weighted median diameter (Dv50=1.8 μm) and linear interpolated size of the 90th percentile (Dv90=4.5 μm) was obtained using higher Venturi (P_Vent=7.5 bar) and grinding pressures (P_Grind=6 bar) as compared with a batch with a slightly coarser PSD of […] when using the jet mill operated at lower pressures (ca. P_Vent=5.5 bar and P_Grind=4.5 bar) (Table 1).

[2] = octanol-water partition coefficient; cited from earlier work
plasma proteins = conditions: cited from earlier work
[3] = in vivo; cited from earlier work
PDE5 enzyme = PDE5 enzyme (Homo sapiens, UniProt O76074); conditions: cited from earlier work
[4] = in vivo; cited from earlier work; remark: listed apart in the source
[5] = inhaled, following pulmonary administration; peak at first time-point tested; cited from earlier work
human patients with PAH = conditions: 5 mg orally twice per day (b.i.d.); cited from earlier work

Row | Compound | log P [2] | protein binding in the systemic circuit (plasma proteins) | half-life at the catalytic site on the PDE enzyme (PDE5 enzyme) | also measured
1 | CCCc1nc(C)c2c(=O)[nH]c(-c3cc(S(=O)(=O)N4CCN(CC)CC4)ccc3OCC)nn12 [Batch 1, vardenafil hydrochloride trihydrate] |  |  |  | PSD by Laser diffraction Dv10 [1]: 0.5 μm; PSD by Laser diffraction Dv50 [1]: 1.8 μm; PSD by Laser diffraction Dv90 [1]: 4.5 μm; PSD by Laser diffraction Span [1]: 2.2
2 | CCCc1nc(C)c2c(=O)[nH]c(-c3cc(S(=O)(=O)N4CCN(CC)CC4)ccc3OCC)nn12 [Batch 2, vardenafil hydrochloride trihydrate] |  |  |  | PSD by Laser diffraction Dv10 [1]: 0.7 μm; PSD by Laser diffraction Dv50 [1]: 2.9 μm; PSD by Laser diffraction Dv90 [1]: 5.5 μm; PSD by Laser diffraction Span [1]: 1.7
3 | COc1ccc(CN=c2[nH]c(N3CCC[C@H]3CO)ncc2C(=O)NCc2ncccn2)cc1Cl [avanafil, (S)-4-[(3-chloro-4-methoxybenzyl)amino]-2-[2-(hydroxymethyl)-1-pyrrolidinyl]-N-(2-pyrimidinylmethyl)-5-pyrimidinecarboxamide] | 2.6 | 99% |  | 
4 | COc1ccccc1Oc1c(NS(=O)(=O)c2ccc(C(C)(C)C)cc2)nc(-c2ncccn2)nc1OCCO [bosentan] | 3.7 | 98% |  | 
5 | CCCCC[C@H](O)/C=C/[C@@H]1[C@H]2C/C(=C/CCCC(=O)O)O[C@H]2C[C@H]1O [epoprostenol, (5Z,9α,11α,13E,15S)-6,9-epoxy-11,15-dihydroxyprosta-5,13-dien-1-oic acid] | 2.9 |  |  | 
6 | CC#CCC(C)[C@H](O)/C=C/[C@@H]1[C@H]2C/C(=C/CCCC(=O)O)C[C@H]2C[C@H]1O (stereo partly drawn) [iloprost, (E)-(3aS, 4R, 5R, 6aS)-hexahydro-5-hydroxy-4-[(E)-(3S,4RS)-3-hydroxy-4-methyl-1-octen-6-ynyl]-Δ^2(1H),Δ-pentalenevaleric acid] | 4.8 |  |  | duration of action [3]: about 30 min
7 | CCCc1nn(C)c2c(=O)[nH]c(-c3cc(S(=O)(=O)N4CCN(C)CC4)ccc3OCC)nc12 [sildenafil, 1-[[3-(6,7-dihydro-1-methyl-7-oxo-3-propyl-1H-pyrazolo[4,3-d]pyrimidin-5-yl)-4-ethoxyphenyl]sulfonyl]-4-methylpiperazine] |  | 96% | 3 min | 
8 | CN1CC(=O)N2[C@H](c3ccc4c(c3)OCO4)c3[nH]c4ccccc4c3C[C@@H]2C1=O [tadalafil, (6R,12aR)-2,3,6,7,12,12a-hexahydro-2-methyl-6-(1,3-benzodioxol-5-yl)-pyrazino[1′,2′:1,6]pyrido[3,4-b]indole-1,4-dione] |  | 94% | 7 min | 
9 | CCCCC[C@H](O)CC[C@@H]1[C@H]2Cc3cccc(OCC(=O)O)c3C[C@H]2C[C@H]1O [treprostinil, (1R,2R,3aS,9aS)-[[2,3,3a,4,9,9a-hexahydro-2-hydroxy-1-[(3S)-3-hydroxyoctyl]-1H-benz[f]inden-5-yl]oxy]acetic acid] | 4.1 |  |  | oral bioavailability [4]: 18%
10 | CCCc1nc(C)c2c(=O)nc(-c3cc(S(=O)(=O)N4CCN(CC)CC4)ccc3OCC)[nH]n12 [vardenafil, 1-[[3-(1,4-dihydro-5-methyl-4-oxo-7-propylimidazo[5,1-f][1,2,4]triazin-2-yl)-4-ethoxyphenyl]sulfonyl]-4-ethyl-piperazine] |  | 93-95% | about 2 hr | tmax [5]: ≤ 2 min; safety and efficacy in PAH (human patients with PAH): safe and effective
